We go through 9 compounds from US20140128352A1, “COMPOUNDS AND METHODS FOR MODULATING MITOCHONDRIAL METABOLISM AND REACTIVE OXYGEN SPECIES PRODUCTION” (Buck Institute for Research on Aging, priority 2012, published 2014).

Read-outs that look alike come from different tables or passages of the source.

Test [1] concerns the target T1, flavin binding site of complex I (IF) (Rattus norvegicus, UniProt Q5XIH3).
T1 construct: freshly isolated muscle mitochondria were assayed; from tissue; host or cells: rat skeletal muscle mitochondria (Wistar, Harlan Laboratories)
The test is described as follows: High-throughput screen: ROS production from flavin binding site of complex I (IF). In kind it is biochemical.

In test [2] the test system is ubiquinone binding site of complex I (IQ). The test is described as follows: High-throughput screen: ROS production from ubiquinone binding site of complex I (IQ), isolated skeletal muscle mitochondria. The class given is biochemical, rat. The settings on record: percent change in ROS from DMSO controls.
For test [3], the target named is T2, outer ubiquinone binding site of complex III (IIIQO) (Rattus norvegicus, UniProt P00159+P20788).
T2 construct: freshly isolated muscle mitochondria were assayed; from tissue; host or cells: rat skeletal muscle mitochondria (Wistar, Harlan Laboratories)
The test is described as follows: High-throughput screen: ROS production from outer ubiquinone binding site of complex III (IIIQO). The class given is biochemical. The conditions noted are these: for IIIQO: Table 8.

In test [4] the test system is mitochondrial membrane potential (ΔΨm). Description: Membrane potential (ΔΨm) counterscreen with TMRM. The settings on record: malate, nigericin. On the technique in general: A counterscreen serves to expose hits that act by an unwanted route or on another target.
Description: Skeletal muscle mitochondria were isolated from 5-8 week old female Wistar rats (Harlan Laboratories). Minced muscle was homogenized in buffer containing bacterial protease Type VIII prior to differential centrifugation to separate mitochondria from other tissue components. Unless otherwise stated, freshly isolated muscle mitochondria were assayed in buffer containing 120 mM KCl, 5 mM HEPES, 1 mM EGTA, 0.3% (w/v) bovine serum albumin. Where indicated, CaCl2 was added to yield a final free concentration of 250 nM calcium at pH 7.0 at 37° C. Total and free calcium concentrations were calculated using the Extended MaxChelator program at http://maxchelator.stanford.edu.
Compounds were manually transferred from the Master Compound Plate to two black 96-well assay plates. A bulk solution was prepared containing the following components (final concentrations) and manually dispensed into the two ΔΨm assay plates: the potentiometric dye TMRM (5 μM), mitochondria (0.2 mg/mL), glutamate (5 mM), malate (5 mM), and nigericin (80 ng/mL).
In test [5] the target is T3, succinate dehydrogenase/complex II (SDH) (Rattus norvegicus, UniProt P21913+Q641Z9+Q6PCT8+Q920L2).
T3 construct: freshly isolated muscle mitochondria were assayed; from tissue; host or cells: rat skeletal muscle mitochondria (Wistar, Harlan Laboratories)
T3 sequence (Q920L2 35-656): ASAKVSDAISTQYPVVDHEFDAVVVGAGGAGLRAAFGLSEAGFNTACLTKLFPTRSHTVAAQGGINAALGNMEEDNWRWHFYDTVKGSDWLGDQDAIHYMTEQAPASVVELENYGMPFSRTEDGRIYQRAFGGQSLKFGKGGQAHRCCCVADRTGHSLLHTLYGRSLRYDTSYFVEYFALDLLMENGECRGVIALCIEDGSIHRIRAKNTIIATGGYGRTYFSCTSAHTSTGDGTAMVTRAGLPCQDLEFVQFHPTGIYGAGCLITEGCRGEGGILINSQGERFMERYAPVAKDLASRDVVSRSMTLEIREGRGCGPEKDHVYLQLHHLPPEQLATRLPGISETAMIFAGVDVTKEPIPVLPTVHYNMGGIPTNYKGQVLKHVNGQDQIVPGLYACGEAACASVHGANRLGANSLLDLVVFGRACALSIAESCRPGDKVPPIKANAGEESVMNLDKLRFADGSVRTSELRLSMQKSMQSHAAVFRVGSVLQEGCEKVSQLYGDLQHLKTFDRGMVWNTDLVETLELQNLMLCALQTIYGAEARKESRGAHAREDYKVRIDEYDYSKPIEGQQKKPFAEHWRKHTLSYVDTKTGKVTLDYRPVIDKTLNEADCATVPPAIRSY
T3 sequence (P21913 31-282): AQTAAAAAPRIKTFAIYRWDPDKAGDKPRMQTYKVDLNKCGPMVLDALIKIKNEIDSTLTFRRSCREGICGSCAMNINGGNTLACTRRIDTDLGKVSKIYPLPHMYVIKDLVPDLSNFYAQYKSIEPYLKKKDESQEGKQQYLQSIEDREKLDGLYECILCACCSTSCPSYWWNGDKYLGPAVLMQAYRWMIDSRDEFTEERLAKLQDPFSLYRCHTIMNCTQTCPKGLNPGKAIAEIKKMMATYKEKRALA
T3 sequence (Q641Z9 30-169 limits assumed): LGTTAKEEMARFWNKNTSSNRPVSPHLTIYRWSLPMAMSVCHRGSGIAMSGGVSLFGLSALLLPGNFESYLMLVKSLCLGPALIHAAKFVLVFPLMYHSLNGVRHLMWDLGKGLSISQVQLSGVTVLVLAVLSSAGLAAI
T3 sequence (Q6PCT8 57-159): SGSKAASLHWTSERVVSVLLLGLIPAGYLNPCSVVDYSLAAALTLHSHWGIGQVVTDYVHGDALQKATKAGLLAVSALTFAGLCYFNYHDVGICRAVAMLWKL
Description: High-throughput screen: ROS production from succinate dehydrogenase/complex II (SDH). The class given is biochemical. The conditions noted are these: percent change in ROS from DMSO controls; for inhibition at 2.5 µM: Table 7.

Test [6] addresses T4, glycerol-3-phosphate dehydrogenase (GPDH) (Rattus norvegicus, UniProt P35571).
T4 construct: The activity of GPDH in intact mitochondria (0.3 mg/mL) was measured; from tissue; host or cells: rat skeletal muscle mitochondria (Wistar, Harlan Laboratories)
T4 sequence (P35571 43-727): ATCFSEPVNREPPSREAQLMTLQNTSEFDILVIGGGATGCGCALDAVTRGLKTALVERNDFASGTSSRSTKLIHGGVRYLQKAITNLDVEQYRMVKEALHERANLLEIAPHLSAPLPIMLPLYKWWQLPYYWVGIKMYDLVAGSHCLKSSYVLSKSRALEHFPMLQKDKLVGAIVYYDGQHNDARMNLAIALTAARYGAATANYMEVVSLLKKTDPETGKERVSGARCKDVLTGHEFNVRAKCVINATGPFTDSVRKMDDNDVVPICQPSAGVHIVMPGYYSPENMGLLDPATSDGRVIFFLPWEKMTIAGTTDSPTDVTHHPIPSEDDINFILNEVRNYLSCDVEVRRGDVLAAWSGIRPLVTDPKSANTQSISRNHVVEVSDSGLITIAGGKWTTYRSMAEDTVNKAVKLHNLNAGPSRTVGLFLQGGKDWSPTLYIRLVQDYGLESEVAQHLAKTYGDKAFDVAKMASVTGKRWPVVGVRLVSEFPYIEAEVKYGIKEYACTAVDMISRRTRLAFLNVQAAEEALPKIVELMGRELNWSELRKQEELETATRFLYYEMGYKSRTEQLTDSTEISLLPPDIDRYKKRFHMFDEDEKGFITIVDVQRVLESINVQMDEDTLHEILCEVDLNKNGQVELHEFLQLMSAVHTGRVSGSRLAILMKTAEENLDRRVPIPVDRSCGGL
Description: High-throughput screen: ROS production from glycerol-3-phosphate dehydrogenase (GPDH). The settings on record: percent change in ROS from DMSO controls; for inhibition: Table 7. Details: inhibition: dose or concentration left out as unconfirmed. The class given is biochemical.

Setting [7] is: Table 3, 5 mM glutamate, 5 mM malate, 4 μM rotenone, compounds 2.5 μM, percent change from DMSO, positive control −100%, read-out: % Reduction in ROS production (IF).
Where [8] appears, read: Table 7, percent change in ROS from DMSO controls, read-out: IF.
Setting [9] is: Table 8, percent change in ROS from DMSO controls.
Where [10] appears, read: Table 9, percent change in ROS from DMSO controls.
Setting [11] is: Table 7, percent change in ROS from DMSO controls, read-out: IIIQO.
Where [12] appears, read: percent change in ROS from DMSO controls.
Where [13] appears, read: Table 9, percent change in ROS from DMSO controls, read-out: IIIQo.
[14] abbreviates: Table 4, 5 mM succinate, 4 μM rotenone, 2.5 μM antimycin A, compounds 2.5 μM, percent change from DMSO, read-out: % Reduction in ROS production (IIIQO).

T1 sequence (Q5XIH3 21-464 limits assumed, one chain of several): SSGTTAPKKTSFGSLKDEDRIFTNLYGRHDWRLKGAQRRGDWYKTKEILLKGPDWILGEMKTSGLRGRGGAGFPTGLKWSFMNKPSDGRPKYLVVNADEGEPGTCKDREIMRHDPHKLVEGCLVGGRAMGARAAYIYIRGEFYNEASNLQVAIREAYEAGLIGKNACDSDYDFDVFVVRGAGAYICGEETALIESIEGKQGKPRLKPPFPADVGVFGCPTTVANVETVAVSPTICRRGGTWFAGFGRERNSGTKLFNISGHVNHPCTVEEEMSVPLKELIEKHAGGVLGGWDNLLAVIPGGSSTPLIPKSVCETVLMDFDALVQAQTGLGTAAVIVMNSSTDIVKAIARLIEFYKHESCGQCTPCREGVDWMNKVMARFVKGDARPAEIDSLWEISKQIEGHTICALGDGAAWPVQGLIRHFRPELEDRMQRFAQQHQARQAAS

As to `O=C(COc1ccc(Cl)cc1Cl)Nc1ccc(F)cc1F` [Compound 24], the inhibition at 2.5 µM in test [1] (setting [7]) came out at 19.8%; in test [1] (setting [8]), 19.8%; in test [3] (setting [11]), 1.3%; in test [3] (setting [13]) it was 1.3%; in test [5], 1.5%. Moreover, the IF in test [1] (setting [9]) and in test [1] (setting [10]) was −19.8 each time. Moreover, the IQ in test [2] (Table 7), in test [2] (Table 8) and in test [2] (Table 9) was −1.0 in each case. For the same compound, the IIIQO in test [3] (setting [12]) is −1.3. The ΔΨm was found to be 0.1 in test [4] (Table 8, glutamate) and 0.1 in test [4] (Table 9, glutamate). Also, the SDH in test [5] (Table 8) and in test [5] (Table 9) was −1.5 each time. Besides, in test [6], the inhibition stood at 2%. Moreover, the GPDH in test [6] (Table 8) and in test [6] (Table 9) was −2.0 throughout.

In the case of `CCN(CC)CCN(CC)Cc1ccc(Cl)cc1Cl` [Compound 25], the inhibition at 2.5 µM stood at 19.7% in test [1] (setting [7]); 19.7% in test [1] (setting [8]); 3.3% in test [3] (setting [11]); 3.3% in test [3] (setting [13]); 0.1% in test [5]. Also, the IF in test [1] (setting [9]) and in test [1] (setting [10]) was −19.7 throughout. The IQ in test [2] (Table 7), in test [2] (Table 8) and in test [2] (Table 9) was −0.6 each time. Besides, in test [3] (setting [12]), the IIIQO is listed as −3.3. Moreover, the ΔΨm is −0.4 in test [4] (Table 8, glutamate) and −0.4 in test [4] (Table 9, glutamate). Further, the SDH in test [5] (Table 8) and in test [5] (Table 9) was −0.1 in each case. Further, the inhibition in test [6] was determined as 2.5%. Moreover, the GPDH in test [6] (Table 8) and in test [6] (Table 9) was −2.5 each time.

`Cc1ccc(S(=O)(=O)Nc2nnc(C)s2)cc1` [Compound 27]: the inhibition at 2.5 µM is 19.6% in test [1] (setting [7]); 19.6% in test [1] (setting [8]); 0.1% in test [3] (setting [11]); 0.1% in test [3] (setting [13]); -0.8% in test [5]. The IF in test [1] (setting [9]) and in test [1] (setting [10]) was −19.6 in each case. Besides, the IQ in test [2] (Table 7), in test [2] (Table 8) and in test [2] (Table 9) was 0.0 in each case. In test [3] (setting [12]), this compound yielded an IIIQO of −0.1. In addition, the ΔΨm in test [4] (Table 8, glutamate) turned out to be 1.6; in test [4] (Table 9, glutamate), 1.6. For the same compound, the SDH in test [5] (Table 8) and in test [5] (Table 9) was 0.8 in each case. Also, the inhibition in test [6] was 0.4%. For the same compound, the GPDH in test [6] (Table 8) and in test [6] (Table 9) was −0.4 in each case.

As to `O=C(Nc1ccc(Br)cc1)[C@@H]1C2C=CC(C2)[C@@H]1C(=O)O` (stereo partly drawn) [Compound 28], the inhibition at 2.5 µM in test [1] (setting [7]) was 19.1%; in test [1] (setting [8]), 19.1%; in test [3] (setting [11]), 2.5%; in test [3] (setting [13]), 2.5%; in test [5] it was -1.3%. For the same compound, the IF in test [1] (setting [9]) and in test [1] (setting [10]) was −19.1 throughout. The IQ in test [2] (Table 7), in test [2] (Table 8) and in test [2] (Table 9) was 0.2 throughout. In test [3] (setting [12]), this compound returned an IIIQO of −2.5. Besides, the ΔΨm in test [4] (Table 8, glutamate) is reported as −1.3; in test [4] (Table 9, glutamate), −1.3. Besides, the SDH in test [5] (Table 8) and in test [5] (Table 9) was 1.3 throughout. The inhibition in test [6] worked out at 2.3%. Also, the GPDH in test [6] (Table 8) and in test [6] (Table 9) was −2.3 in each case.

Take `Cc1ccc(CCSc2ccc(F)cc2)cn1` [Compound 35]: the inhibition at 2.5 µM is 0.7% in test [1] (setting [8]); 34.9% in test [3] (setting [14]); 34.9% in test [3] (setting [11]); 34.9% in test [3] (setting [13]); -0.2% in test [5]. The IF in test [1] (setting [9]) and in test [1] (setting [10]) was −0.7 each time. For the same compound, the IQ in test [2] (Table 7), in test [2] (Table 8) and in test [2] (Table 9) was 1.3 in each case. In test [3] (setting [12]), this compound had an IIIQO of −34.9. For the same compound, the ΔΨm in test [4] (Table 8, glutamate) was 0.6; in test [4] (Table 9, glutamate) it was 0.6. Further, the SDH in test [5] (Table 8) and in test [5] (Table 9) was 0.2 in each case. Further, in test [6], the inhibition worked out at 5.3%. The GPDH in test [6] (Table 8) and in test [6] (Table 9) was −5.3 throughout.

As for `c1cc2c3c(ccc(CSCCc4ccncc4)c3c1)CC2` [Compound 36], the inhibition at 2.5 µM is -0.6% in test [1] (setting [8]); 33.6% in test [3] (setting [14]); 33.6% in test [3] (setting [11]); 33.6% in test [3] (setting [13]); 1.1% in test [5]. In addition, the IF in test [1] (setting [9]) and in test [1] (setting [10]) was 0.6 each time. The IQ in test [2] (Table 7), in test [2] (Table 8) and in test [2] (Table 9) was 3.7 each time. Also, the IIIQO in test [3] (setting [12]) is listed as −33.6. Also, the ΔΨm in test [4] (Table 8, glutamate) was 0.0; in test [4] (Table 9, glutamate), 0.0. Also, the SDH in test [5] (Table 8) and in test [5] (Table 9) was −1.1 each time. In addition, in test [6], the inhibition came to 4.9%. The GPDH in test [6] (Table 8) and in test [6] (Table 9) was −4.9 in each case.

In the case of `Cc1cc(C)c(S(=O)(=O)N2CCCC2=O)c(C)c1` [Compound 40], the inhibition at 2.5 µM is -1.8% in test [1] (setting [8]); 25.1% in test [3] (setting [14]); 25.1% in test [3] (setting [11]); 25.1% in test [3] (setting [13]); 2.7% in test [5]. The IF in test [1] (setting [9]) and in test [1] (setting [10]) was 1.8 each time. Also, the IQ in test [2] (Table 7), in test [2] (Table 8) and in test [2] (Table 9) was 4.3 each time. This compound also had an IIIQO in test [3] (setting [12]) of −25.1. Further, the ΔΨm in test [4] (Table 8, glutamate) stood at 0.7; in test [4] (Table 9, glutamate), 0.7. Moreover, the SDH in test [5] (Table 8) and in test [5] (Table 9) was −2.7 in each case. For the same compound, the inhibition in test [6] came to 4.2%. Moreover, the GPDH in test [6] (Table 8) and in test [6] (Table 9) was −4.2 throughout.

As for `COc1ccc(-c2ccccc2)cc1NCC1=CC[C@H]2C[C@@H]1C2(C)C` [Compound 41], the inhibition at 2.5 µM in test [1] (setting [8]) was -6.6%; in test [3] (setting [14]), 24.7%; in test [3] (setting [11]), 24.7%; in test [3] (setting [13]), 24.7%; in test [5], -1.2%. The IF in test [1] (setting [9]) and in test [1] (setting [10]) was 6.6 in each case. In addition, the IQ in test [2] (Table 7), in test [2] (Table 8) and in test [2] (Table 9) was 0.2 in each case. In test [3] (setting [12]), this compound displayed an IIIQO of −24.7. Moreover, the ΔΨm in test [4] (Table 8, glutamate) was determined as 2.3; in test [4] (Table 9, glutamate) it was 2.3. Besides, the SDH in test [5] (Table 8) and in test [5] (Table 9) was 1.2 in each case. Moreover, in test [6], the inhibition was -2.6%. In addition, the GPDH in test [6] (Table 8) and in test [6] (Table 9) was 2.6 throughout.

`Fc1ccc(SCCc2ccccn2)cc1` [Compound 42]: the inhibition at 2.5 µM was 2.6% in test [1] (setting [8]); 24.1% in test [3] (setting [14]); 24.1% in test [3] (setting [11]); 24.1% in test [3] (setting [13]); -0.7% in test [5]. Also, the IF in test [1] (setting [9]) and in test [1] (setting [10]) was −2.6 each time. Also, the IQ in test [2] (Table 7), in test [2] (Table 8) and in test [2] (Table 9) was 7.9 in each case. In test [3] (setting [12]), this compound showed an IIIQO of −24.1. Also, the ΔΨm stood at 0.4 in test [4] (Table 8, glutamate) and 0.4 in test [4] (Table 9, glutamate). Also, the SDH in test [5] (Table 8) and in test [5] (Table 9) was 0.7 throughout. For the same compound, the inhibition in test [6] worked out at 0.3%. For the same compound, the GPDH in test [6] (Table 8) and in test [6] (Table 9) was −0.3 throughout.
